Measured values as given in patent publication US20240409585A1, “MACROCYCLIC IMMUNOMODULATORS” (priority 2021, published 2024).
Numbered stars: 1 amine (or outer) side, 2 acyl side, 3 side chain; on linkers, the order of the positions; unused ones are H or OH. Bridge positions count the residues as written; N and C are the ends. Square brackets hold non-standard residues; d marks the D form. Peptide text beside a SMILES is read from it. * marks the point of attachment. Bip(4'-COOH) = N[C@@H](Cc1ccc(-c2ccc(C(=O)O)cc2)cc1)C(=O)O; Bip(4'-NHAc) = CC(=O)Nc1ccc(-c2ccc(C[C@H](N)C(=O)O)cc2)cc1; Phe(3-CF3) = N[C@@H](Cc1cccc(C(F)(F)F)c1)C(=O)O; Ala(morpholin-4-yl) = N[C@@H](CN1CCOCC1)C(=O)O; Phe(4-CONH2) = NC(=O)c1ccc(C[C@H](N)C(=O)O)cc1; Phe(4-COOH) = N[C@@H](Cc1ccc(C(=O)O)cc1)C(=O)O; Phe(2,4-Cl2) = N[C@@H](Cc1ccc(Cl)cc1Cl)C(=O)O; X4 = O=C([C@H](Cc1ccc2cc[nH]c2c1)N[*:1])[*:2]; Bip = N[C@@H](Cc1ccc(-c2ccccc2)cc1)C(=O)O; Phe(3-CN) = N#Cc1cccc(C[C@H](N)C(=O)O)c1; Phe(3-F) = N[C@@H](Cc1cccc(F)c1)C(=O)O; Phe(3-Me) = Cc1cccc(C[C@H](N)C(=O)O)c1; Abu(3S-NH2) = C[C@H](N)[C@H](N)C(=O)O; 3Pal = N[C@@H](Cc1cccnc1)C(=O)O; Cha = N[C@@H](CC1CCCCC1)C(=O)O; Carboxymethyl = O=C(O)C*; NMeA = CN[C@@H](C)C(=O)O; Orn = NCCC[C@H](N)C(=O)O; Dab = NCC[C@H](N)C(=O)O

What was measured:
[1] = target: T1, PE-labeled human PD-L1-Ig binding to Jurkat cell line over-expressing human PD-1 (Jurkat-PD-1) (Homo sapiens, UniProt Q15116); assay: Jurkat-PD-1 Cell Binding High-Content Screening Assay (CBA): Method 1; settings: Jurkat-PD-1 cells, PE-labeled PD-L1-Ig; μM; read-out: CBA Method 1 μM
T1 construct: expressed in transfected cells; host or cells: Jurkat
T1 sequence (Q15116 25-288): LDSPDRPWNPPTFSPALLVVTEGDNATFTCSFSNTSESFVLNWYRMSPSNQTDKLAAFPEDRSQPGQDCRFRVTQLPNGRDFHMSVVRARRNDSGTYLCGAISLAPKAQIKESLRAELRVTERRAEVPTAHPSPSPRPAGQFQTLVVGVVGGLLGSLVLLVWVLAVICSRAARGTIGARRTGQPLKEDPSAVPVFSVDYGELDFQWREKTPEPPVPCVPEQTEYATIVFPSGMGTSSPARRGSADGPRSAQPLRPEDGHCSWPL

[2] = target: T1, PE-labeled human PD-L1-Ig binding to Jurkat cell line over-expressing human PD-1 (Jurkat-PD-1); assay: Jurkat-PD-1 Cell Binding High-Content Screening Assay (CBA): Method 2 (presence and absence of tween-20); settings: Jurkat-PD-1 cells, PE-labeled PD-L1-Ig 20 nM; presence or absence of tween-20 not given; head μM; read-out: CBA Method 2 μM
Experimental: Jurkat-PD-1 Cell Binding High-Content Screening Assay (CBA): Method 2
Phycoerythrin (PE) was covalently linked to the Ig epitope tag of human PD-L1-Ig and fluorescently labeled PD-L1-Ig was used for binding studies with a Jurkat cell line over-expressing human PD-1 (Jurkat-PD-1). […] 100 nl of compound was added to cells followed by incubation at 37° C. for 2 hours. To interrogate potential issues with compound aggregation, compounds were tested in the presence and absence of tween-20 detergent. […] Then, 5 μl of PE-labeled PD-L1-Ig (20 nM final), diluted in DMEM supplemented with 10% fetal calf serum. […] Data was collected and processed using a Cell Insight NXT High Content Imager and associated software.

IC50 [1] [µM] | IC50 [2] [µM] | SMILES
0.0888 | 0.0822 | Cc1cccc(C[C@@H]2NC(=O)[C@H](CC(=O)O)NC(=O)[C@H](Cc3ccc(OCC(=O)O)cc3)NC(=O)[C@H](CN3CCOCC3)NC(=O)CSC[C@@H](C(=O)N[C@@H](CCN)C(N)=O)NC(=O)[C@H](CCCN)NC(=O)[C@H](C(C)C)NC(=O)[C@H](Cc3ccc(Cl)cc3Cl)NC(=O)[C@H](CCN)NC(=O)[C@@H](CC(C)C)NC(=O)[C@H](C)N(C)C(=O)[C@H](CCC(N)=O)NC(=O)[C@H](Cc3ccc(-c4ccccc4)cc3)NC(=O)[C@H](Cc3ccc(C(=O)O)cc3)NC2=O)c1 [Example 5041] ({CH2CO}-[Ala(morpholin-4-yl)]Y(Carboxymethyl)D[Phe(3-Me)][Phe(4-COOH)][Bip]Q[NMeA][dL][Dab][Phe(2,4-Cl2)]V[Orn]C[Dab]-NH2; thioether N-14)
0.0729 | 0.0607 | Cc1cccc(C[C@@H]2NC(=O)[C@H](CC(=O)O)NC(=O)[C@H](Cc3ccc(OCC(=O)O)cc3)NC(=O)[C@H](CN3CCOCC3)NC(=O)CSC[C@@H](C(=O)N[C@@H](CCN)C(N)=O)NC(=O)[C@H](CCCN)NC(=O)[C@H](C(C)C)NC(=O)[C@H](Cc3cccnc3)NC(=O)[C@H](CCN)NC(=O)[C@@H](CC(C)C)NC(=O)[C@H](C)N(C)C(=O)[C@H](CCC(N)=O)NC(=O)[C@H](Cc3ccc(-c4ccccc4)cc3)NC(=O)[C@H](Cc3ccc(C(=O)O)cc3)NC2=O)c1 [Example 5039] ({CH2CO}-[Ala(morpholin-4-yl)]Y(Carboxymethyl)D[Phe(3-Me)][Phe(4-COOH)][Bip]Q[NMeA][dL][Dab][3Pal]V[Orn]C[Dab]-NH2; thioether N-14)
0.0083 | 0.007 | CC(=O)Nc1ccc(-c2ccc(C[C@@H]3NC(=O)[C@H](Cc4cccc(C)c4)NC(=O)[C@H](CC(=O)O)NC(=O)[C@H](Cc4ccc(C(=O)O)cc4)NC(=O)[C@H](CN4CCOCC4)NC(=O)CSC[C@@H](C(=O)N[C@@H](CCN)C(N)=O)NC(=O)[C@H](CCCN)NC(=O)[C@H](C(C)C)NC(=O)[C@H](Cc4cccc(F)c4)NC(=O)[C@H](CCN)NC(=O)[C@@H](CC(C)C)NC(=O)[C@H](C)N(C)C(=O)[C@H](CCC(N)=O)NC(=O)[C@H](Cc4ccc(-c5ccccc5)cc4)NC3=O)cc2)cc1 [Example 5049] ({CH2CO}-[Ala(morpholin-4-yl)][Phe(4-COOH)]D[Phe(3-Me)][Bip(4'-NHAc)][Bip]Q[NMeA][dL][Dab][Phe(3-F)]V[Orn]C[Dab]-NH2; thioether N-14)
0.09 | 0.07 | CC(=O)Nc1ccc(-c2ccc(C[C@@H]3NC(=O)[C@H](Cc4cccc(C(F)(F)F)c4)NC(=O)[C@H](CC(=O)O)NC(=O)[C@H](Cc4ccc(-c5ccc(C(=O)O)cc5)cc4)NC(=O)[C@H](CN4CCOCC4)NC(=O)CSC[C@@H](C(=O)N[C@@H](CCN)C(N)=O)NC(=O)[C@H](CCN)NC(=O)[C@H](C(C)C)NC(=O)[C@H](CC4CCCCC4)NC(=O)[C@H](CCN)NC(=O)[C@@H](CC(C)C)NC(=O)[C@H](C)N(C)C(=O)[C@H](CCCN)NC(=O)[C@H](Cc4ccc(-c5ccccc5)cc4)NC3=O)cc2)cc1 [Example 5091] ({CH2CO}-[Ala(morpholin-4-yl)][Bip(4'-COOH)]D[Phe(3-CF3)][Bip(4'-NHAc)][Bip][Orn][NMeA][dL][Dab][Cha]V[Dab]C[Dab]-NH2; thioether N-14)
0.0385 | 0.0321 | CC(=O)Nc1ccc(-c2ccc(C[C@@H]3NC(=O)[C@H](Cc4cccc(C)c4)NC(=O)[C@H](CC(=O)O)NC(=O)[C@H](Cc4ccc(C(=O)O)cc4)NC(=O)[C@H](CC(C)C)NC(=O)CSC[C@@H](C(=O)N[C@@H](CCN)C(N)=O)NC(=O)[C@H](CCCN)NC(=O)[C@H](C(C)C)NC(=O)[C@H](Cc4cccc(F)c4)NC(=O)[C@H](CCN)NC(=O)[C@@H](CC(C)C)NC(=O)[C@H](C)N(C)C(=O)[C@H](CCC(N)=O)NC(=O)[C@H](Cc4ccc(-c5ccccc5)cc4)NC3=O)cc2)cc1 [Example 5055] ({CH2CO}-L[Phe(4-COOH)]D[Phe(3-Me)][Bip(4'-NHAc)][Bip]Q[NMeA][dL][Dab][Phe(3-F)]V[Orn]C[Dab]-NH2; thioether N-14)
0.0016 | 0.0014 | Cc1cccc(C[C@@H]2NC(=O)[C@H](CC(=O)O)NC(=O)[C@H](Cc3ccc(OCC(=O)O)cc3)NC(=O)[C@H](CN3CCOCC3)NC(=O)CSC[C@@H](C(=O)N[C@@H](CCN)C(N)=O)NC(=O)[C@H](CCCN)NC(=O)[C@H](C(C)C)NC(=O)[C@H](CC3CCCCC3)NC(=O)[C@H](CCN)NC(=O)[C@@H](CC(C)C)NC(=O)[C@H](C)N(C)C(=O)[C@H](Cc3ccc(C(=O)O)cc3)NC(=O)[C@H](Cc3ccc(-c4ccccc4)cc3)NC(=O)[C@H](Cc3ccc(C(=O)O)cc3)NC2=O)c1 [Example 5045] ({CH2CO}-[Ala(morpholin-4-yl)]Y(Carboxymethyl)D[Phe(3-Me)][Phe(4-COOH)][Bip][Phe(4-COOH)][NMeA][dL][Dab][Cha]V[Orn]C[Dab]-NH2; thioether N-14)
0.0138 | 0.0304 | Cc1cccc(C[C@@H]2NC(=O)[C@H](CC(=O)O)NC(=O)[C@H](Cc3ccc(OCC(=O)O)cc3)NC(=O)[C@H](CN3CCOCC3)NC(=O)CSC[C@@H](C(=O)N[C@@H](CCN)C(N)=O)NC(=O)[C@H](CCCN)NC(=O)[C@H](C(C)C)NC(=O)[C@H](CC3CCCCC3)NC(=O)[C@H](CCN)NC(=O)[C@@H](CC(C)C)NC(=O)[C@H](C)N(C)C(=O)[C@H](CCC(N)=O)NC(=O)[C@H](Cc3ccc(-c4ccccc4)cc3)NC(=O)[C@H](Cc3ccc4cc[nH]c4c3)NC2=O)c1 [Example 5037] ({CH2CO}-[Ala(morpholin-4-yl)]Y(Carboxymethyl)D[Phe(3-Me)][X4][Bip]Q[NMeA][dL][Dab][Cha]V[Orn]C[Dab]-NH2; thioether N-14)
0.0172 | 0.0106 | Cc1cccc(C[C@@H]2NC(=O)[C@H](CC(=O)O)NC(=O)[C@H](Cc3ccc(OCC(=O)O)cc3)NC(=O)[C@H](CCN)NC(=O)CSC[C@@H](C(=O)N[C@@H](CCN)C(N)=O)NC(=O)[C@H](CCC(N)=O)NC(=O)[C@H](C(C)C)NC(=O)[C@H](CC3CCCCC3)NC(=O)[C@H](CCN)NC(=O)[C@@H](CC(C)C)NC(=O)[C@H](C)N(C)C(=O)[C@H](Cc3ccc(C(N)=O)cc3)NC(=O)[C@H](Cc3ccc(-c4ccccc4)cc3)NC(=O)[C@H](Cc3ccc(OCC(=O)O)cc3)NC2=O)c1 [Example 5068] ({CH2CO}-[Dab]Y(Carboxymethyl)D[Phe(3-Me)]Y(Carboxymethyl)[Bip][Phe(4-CONH2)][NMeA][dL][Dab][Cha]VQC[Dab]-NH2; thioether N-14)
0.0053 | 0.0057 | CC(=O)Nc1ccc(-c2ccc(C[C@@H]3NC(=O)[C@H](Cc4cccc(C)c4)NC(=O)[C@H](CC(=O)O)NC(=O)[C@H](Cc4ccc(C(=O)O)cc4)NC(=O)[C@H](CC(C)C)NC(=O)CSC[C@@H](C(=O)N[C@@H](CCN)C(N)=O)NC(=O)[C@H](CCCN)NC(=O)[C@H](C(C)C)NC(=O)[C@H](CC4CCCCC4)NC(=O)[C@H](CCN)NC(=O)[C@@H](CC(C)C)NC(=O)[C@H](C)N(C)C(=O)[C@H](CCC(N)=O)NC(=O)[C@H](Cc4ccc(-c5ccccc5)cc4)NC3=O)cc2)cc1 [Example 5054] ({CH2CO}-L[Phe(4-COOH)]D[Phe(3-Me)][Bip(4'-NHAc)][Bip]Q[NMeA][dL][Dab][Cha]V[Orn]C[Dab]-NH2; thioether N-14)
0.0047 | 0.0043 | Cc1cccc(C[C@@H]2NC(=O)[C@H](CC(=O)O)NC(=O)[C@H](Cc3ccc(OCC(=O)O)cc3)NC(=O)[C@H](CN3CCOCC3)NC(=O)CSC[C@@H](C(=O)N[C@@H](CCN)C(N)=O)NC(=O)[C@H](CCCN)NC(=O)[C@H](C(C)C)NC(=O)[C@H](CC3CCCCC3)NC(=O)[C@H](CCN)NC(=O)[C@@H](CC(C)C)NC(=O)[C@H](C)N(C)C(=O)[C@H](CCC(N)=O)NC(=O)[C@H](Cc3ccc(-c4ccccc4)cc3)NC(=O)[C@H](Cc3cccc(C#N)c3)NC2=O)c1 [Example 5030] ({CH2CO}-[Ala(morpholin-4-yl)]Y(Carboxymethyl)D[Phe(3-Me)][Phe(3-CN)][Bip]Q[NMeA][dL][Dab][Cha]V[Orn]C[Dab]-NH2; thioether N-14)
0.03 | 0.11 | CC(C)C[C@H]1NC(=O)[C@H](C)N(C)C(=O)[C@H](CCCN)NC(=O)[C@H](Cc2ccc(-c3ccccc3)cc2)NC(=O)[C@H](Cc2ccc(-c3ccc(C(=O)O)cc3)cc2)NC(=O)[C@H](Cc2cccc(C(F)(F)F)c2)NC(=O)[C@H](CC(=O)O)NC(=O)[C@H](Cc2ccc(-c3ccc(C(=O)O)cc3)cc2)NC(=O)[C@H](Cc2ccc(OCC(=O)O)cc2)NC(=O)CSC[C@@H](C(=O)N[C@@H](CCN)C(N)=O)NC(=O)[C@H](CCCN)NC(=O)[C@H](C(C)C)NC(=O)[C@H](CC2CCCCC2)NC(=O)[C@H](CCN)NC1=O [Example 5087] ({CH2CO}-Y(Carboxymethyl)[Bip(4'-COOH)]D[Phe(3-CF3)][Bip(4'-COOH)][Bip][Orn][NMeA][dL][Dab][Cha]V[Orn]C[Dab]-NH2; thioether N-14)

SMILES | IC50 [1] [µM] | IC50 [2] [µM]
CC(=O)Nc1ccc(-c2ccc(C[C@@H]3NC(=O)[C@H](Cc4cccc(C(F)(F)F)c4)NC(=O)[C@H](CC(=O)O)NC(=O)[C@H](Cc4ccc(C(=O)O)cc4)NC(=O)[C@H]([C@H](C)N)NC(=O)CSC[C@@H](C(=O)N[C@@H](CCN)C(N)=O)NC(=O)[C@H](CCCN)NC(=O)[C@H](C(C)C)NC(=O)[C@H](CC4CCCCC4)NC(=O)[C@H](CCN)NC(=O)[C@@H](CC(C)C)NC(=O)[C@H](C)N(C)C(=O)[C@H](CCC(N)=O)NC(=O)[C@H](Cc4ccc(-c5ccccc5)cc4)NC3=O)cc2)cc1 [Example 5050] ({CH2CO}-[Abu(3S-NH2)][Phe(4-COOH)]D[Phe(3-CF3)][Bip(4'-NHAc)][Bip]Q[NMeA][dL][Dab][Cha]V[Orn]C[Dab]-NH2; thioether N-14) | 0.0065 | 0.0059
